“And” between values parts separate entries of the source, which are not always exact repeats. Identical values can stand only once.
Assay: Shake-flask solubility with spectrophotometric measurement in aqueous DES mixtures
Type: physicochemical
Settings: for Increase in the solubility compared to the neat DES: 25 °C
Experimental: In order to determine the solubility of the three studied phenolic acids in deep eutectic solvents, a very well-established shake-flask method coupled with spectrophotometric measurements was utilized. The initial procedure involved the preparation of various DESs, which was conducted by mixing their HBA and HBD counterparts in a glass vessel and heating the composition until the formation of a transparent, uniform liquid. […] For additional measurements, the DESs were mixed with water in varying proportions, creating aqueous DES systems. Saturated solutions of CAF, SYR, and COU were obtained by adding excess amounts of these compounds to test tubes containing either a neat deep eutectic solvent or its aqueous solution. Such samples were placed in the Orbital Shaker Incubator ES-20/60 from Biosan (Riga, Latvia) and heated for 24 h at 25 °C, 30 °C, 35 °C, and 40 °C (±0.1 °C) with simultaneous mixing at 60 rpm. Before measurements, the samples were filtered using a PTFE syringe filter from Qpore (Dallas, TX, USA) with a 0.22 μm pore size. In order to avoid possible precipitation of the saturated solutions at decreased temperatures, the test tubes, syringes, pipette tips, and filters were kept at a temperature identical to that of the samples. The spectrophotometric measurements required the preparation of calibration curves for the three APIs. This involved the preparation of a stock solution of each compound in methanol, which was later successfully diluted, and the obtained solutions of varying concentrations were measured using an A360 spectrophotometer from AOE Instruments (Shanghai, China). The wavelength range was set to 200-500 nm, and the resolution was 1 nm. The analytical wavelengths were determined to be 324 nm for caffeic acid, 273 nm for syringic acid, and 308 nm for p-coumaric acid. The final regression equations, obtained after averaging three distinct sets of measurements, are collected in Table 2 together with determination coefficients and limits of detection (LOD) and quantification (LOQ) for the calibration curves. The measurements of the samples were conducted with the same spectrophotometer and identical settings. Methanol was used for the dilution of the samples so that they could remain within the linearity range of the method. Complete spectra of the samples were recorded, but for the solubility determination, the absorbance values at a specific analytical wavelength were considered. These values were combined with the corresponding regression equations of the calibration curves and served for the calculation of the concentration of the three phenolic acids in the studied samples. The densities of such samples were also measured, and for this task 1 mL of each sample was weighed to a precision of 0.1 mg using an AS 110 R2.PLUS analytical balance from […] (Radom, Poland). The obtained densities enabled the calculation of mole fractions of CAF, SYR, and COU dissolved in the studied DESs. For each considered system, three distinct measurements were conducted, and the results were averaged.

- Mole fraction solubility (Bet – TEG 1:2 + water, x*DES 0.9, 30°C): 0.0941±0.0005 mole fraction
- Mole fraction solubility (Bet – TEG 1:2 + water, x*DES 0.9, 35°C): 0.1123±0.0012 mole fraction
- Mole fraction solubility (Bet – TEG 1:2 + water, x*DES 0.9, 40°C): 0.1364±0.0011 mole fraction
- Mole fraction solubility (Bet – TEG 1:2, x*DES 1.0 (neat DES), 25°C): 0.0755±0.0010 mole fraction
- Mole fraction solubility (Bet – TEG 1:2, x*DES 1.0 (neat DES), 30°C): 0.0844±0.0011 mole fraction
- Mole fraction solubility (Bet – TEG 1:2, x*DES 1.0 (neat DES), 35°C): 0.0989±0.0012 mole fraction
- Mole fraction solubility (Bet – TEG 1:2, x*DES 1.0 (neat DES), 40°C): 0.1215±0.0012 mole fraction
- Increase in the solubility compared to the neat DES (Bet-TEG 1:2, x*DES = 0.9 (xwater = 0.1)): 9%
- Mole fraction solubility (ChCl – TEG 1:2 + water, x*DES 0.1, 25°C): 0.0098±0.0001 mole fraction
- Mole fraction solubility (ChCl – TEG 1:2 + water, x*DES 0.1, 30°C): 0.0125±0.0001 mole fraction
- Mole fraction solubility (ChCl – TEG 1:2 + water, x*DES 0.1, 35°C): 0.0162±0.0001 mole fraction
- Mole fraction solubility (ChCl – TEG 1:2 + water, x*DES 0.1, 40°C): 0.0211±0.0001 mole fraction
- Mole fraction solubility (ChCl – TEG 1:2 + water, x*DES 0.2, 25°C): 0.0184±0.0002 mole fraction
- Mole fraction solubility (ChCl – TEG 1:2 + water, x*DES 0.2, 30°C): 0.0233±0.0002 mole fraction
- Mole fraction solubility (ChCl – TEG 1:2 + water, x*DES 0.2, 35°C): 0.0321±0.0001 mole fraction
- Mole fraction solubility (ChCl – TEG 1:2 + water, x*DES 0.2, 40°C): 0.0432±0.0002 mole fraction
- Mole fraction solubility (ChCl – TEG 1:2 + water, x*DES 0.3, 25°C): 0.0292±0.0002 mole fraction
- Mole fraction solubility (ChCl – TEG 1:2 + water, x*DES 0.3, 30°C): 0.0366±0.0003 mole fraction
- Mole fraction solubility (ChCl – TEG 1:2 + water, x*DES 0.3, 35°C): 0.0492±0.0002 mole fraction
- Mole fraction solubility (ChCl – TEG 1:2 + water, x*DES 0.3, 40°C): 0.0665±0.0004 mole fraction
- Mole fraction solubility (ChCl – TEG 1:2 + water, x*DES 0.4, 25°C): 0.0381±0.0003 mole fraction
- Mole fraction solubility (ChCl – TEG 1:2 + water, x*DES 0.4, 30°C): 0.0481±0.0003 mole fraction
- Mole fraction solubility (ChCl – TEG 1:2 + water, x*DES 0.4, 35°C): 0.0652±0.0003 mole fraction
- Mole fraction solubility (ChCl – TEG 1:2 + water, x*DES 0.4, 40°C): 0.0893±0.0002 mole fraction
- Mole fraction solubility (ChCl – TEG 1:2 + water, x*DES 0.5, 25°C): 0.0491±0.0004 mole fraction
- Mole fraction solubility (ChCl – TEG 1:2 + water, x*DES 0.5, 30°C): 0.0612±0.0003 mole fraction
- Mole fraction solubility (ChCl – TEG 1:2 + water, x*DES 0.5, 35°C): 0.0841±0.0005 mole fraction
- Mole fraction solubility (ChCl – TEG 1:2 + water, x*DES 0.5, 40°C): 0.1208±0.0009 mole fraction
- Mole fraction solubility (ChCl – TEG 1:2 + water, x*DES 0.6, 25°C): 0.0593±0.0005 mole fraction
- Mole fraction solubility (ChCl – TEG 1:2 + water, x*DES 0.6, 30°C): 0.0754±0.0003 mole fraction
- Mole fraction solubility (ChCl – TEG 1:2 + water, x*DES 0.6, 35°C): 0.1040±0.0006 mole fraction
- Mole fraction solubility (ChCl – TEG 1:2 + water, x*DES 0.6, 40°C): 0.1464±0.0014 mole fraction
- Mole fraction solubility (ChCl – TEG 1:2 + water, x*DES 0.7, 25°C): 0.0715±0.0007 mole fraction
- Mole fraction solubility (ChCl – TEG 1:2 + water, x*DES 0.7, 30°C): 0.0924±0.0007 mole fraction
- Mole fraction solubility (ChCl – TEG 1:2 + water, x*DES 0.7, 35°C): 0.1254±0.0014 mole fraction
- Mole fraction solubility (ChCl – TEG 1:2 + water, x*DES 0.7, 40°C): 0.1718±0.0012 mole fraction
- Mole fraction solubility (ChCl – TEG 1:2 + water, x*DES 0.8, 25°C): 0.0827±0.0009 mole fraction
- Mole fraction solubility (ChCl – TEG 1:2 + water, x*DES 0.8, 30°C): 0.1080±0.0013 mole fraction
- Mole fraction solubility (ChCl – TEG 1:2 + water, x*DES 0.8, 35°C): 0.1418±0.0015 mole fraction
- Mole fraction solubility (ChCl – TEG 1:2 + water, x*DES 0.8, 40°C): 0.1910±0.0018 mole fraction
- Mole fraction solubility (ChCl – TEG 1:2 + water, x*DES 0.9, 30°C): 0.1116±0.0017 mole fraction
- Mole fraction solubility (ChCl – TEG 1:2 + water, x*DES 0.9, 35°C): 0.1479±0.0013 mole fraction
- Mole fraction solubility (ChCl – TEG 1:2 + water, x*DES 0.9, 40°C): 0.1964±0.0019 mole fraction
- Mole fraction solubility (ChCl – TEG 1:2, x*DES 1.0 (neat DES), 25°C): 0.0835±0.0010 mole fraction
- Mole fraction solubility (ChCl – TEG 1:2, x*DES 1.0 (neat DES), 30°C): 0.1032±0.0014 mole fraction
- Mole fraction solubility (ChCl – TEG 1:2, x*DES 1.0 (neat DES), 35°C): 0.1364±0.0007 mole fraction
- Mole fraction solubility (ChCl – TEG 1:2, x*DES 1.0 (neat DES), 40°C): 0.1928±0.0017 mole fraction
- Increase in the solubility compared to the neat DES (ChCl-TEG 1:2, x*DES = 0.9 (xwater = 0.1)): 2%
- Solubility increase between 25 °C and 40 °C (neat DES (x*DES = 1.0) involving betaine (Bet-TEG 1:2)): 161%
- Solubility increase between 25 °C and 40 °C (neat DES (x*DES = 1.0) with choline chloride (ChCl-TEG 1:2)): 231%
Compound: O=C(O)C=Cc1ccc(O)c(O)c1 [caffeic acid, 3,4-dihydroxycinnamic acid]
- Mole fraction solubility (ChCl – TEG 1:2 + water, x*DES 0.9, 25°C): 0.0851 mole fraction and 0.0851±0.0005 mole fraction
